Test results taken from patent US20140314791A1, “METHODS OF TREATING CANCER” (DANA-FARBER CANCER INSTITUTE, INC., priority 2012, published 2014).

Experiments:
Chek1 = conditions: Lkb1-wt 634 cells, normalized to shGFP
[1] = test system: Lkb1-null versus Lkb1-wt cell lines; assay: Large-scale pooled shRNA library screening (murine 40K pool); type: cell-based, mouse; conditions: for Hairpin-rank in pooled shRNA screen: Table 6; for # Hairpins 1000: number of the gene's hairpins ranked within 1000; for # Hairpins 5000: number of the gene's hairpins ranked within 5000; for # Hairpins 10000: number of the gene's hairpins ranked within 10000
Lkb1-null cells = assay: Array-based viral infection and cell proliferation assay (validation), Lkb1-null; set-up: species or system mouse; conditions: for Growth of Lkb1-wt/Lkb1-null in array-based validation: Table 6; for Null ave-GR: validation, 5 days post infection, alamarBlue
Experimental: (§1) (C) Validation study. Relative viability of Lkb1-wt and Lkb1-null cells infected with 340 individual hairpins for 5 days. Genes of interest are highlighted by the colors indicated.
(§2) For array-based viral infection and assessment of proliferation, 2.5 μl virus was mixed with 250 cells in 100 μl medium containing 8 μg/ml polybrene per well in 96-well plates. The plates were spun at 2250 rpm/37° C. for 30 min. Immediately after spinning, supernatants were gently aspirated off and 100 μl fresh medium was added to each well of the 96-well plates. After 2 days incubation, medium was gently aspirated off and 100 fresh medium containing 3 μg/ml puromycin was added to each well of the 96-well plates. The plates were back to culture for additional 3 days and then the viable cells were monitored by alamarBlue (Invitrogen) assay according to manufacturer's instructions.
(§3) To identify Lkb1-null-selective essential genes, a synthetic lethal screen was performed using a pooled 40K murine shRNA lentiviral library for each of the Lkb1-wt and Lkb1-null cell lines described above. Relative abundance of shRNAs in each cell line sample was determined by deep-sequencing analysis, and for every shRNA, a log 2 Fold Change (log 2FC) value was calculated from the difference in relative abundance at a late time point after infection versus the initial shRNA-infected sample. An unsupervised hierarchical clustering analysis of the ranked hairpins from the triplicate pooled shRNA library screens of Lkb1-wt and Lkb1-null mouse cancer cells is shown in FIG. 1A. […] The ranked hairpins were collapsed by using two methods, a RIGER analysis (KS t-test based statistics) and a weighted second best analysis to rank genes that selectively impaired proliferation/viability in Lkb1-null cells. A union of 344 genes, identified by the top 100 individual hairpins for 88 genes (Table 1) and the top 200 genes from both the KS (Table 2) and weighted second best (Table 3), was nominated as the initial prioritized list (FIG. 1B). 340 shRNAs, targeting 70 candidate genes from this prioritized list, were chosen for validation (Table 4). The 70 genes consisted of the top 10 candidates from the KS analysis, as well as 60 others involved in a range of biological processes in an attempt to represent all biological categories in the validation process. Validation was performed in an array format with an assay of relatively short duration (5 days post infection) compared to the primary pooled screen (28 days), which should be a more stringent selection, as it required the anti-proliferative effects to manifest in a short time period. […] Dtymk, Check1, and Pdhb are the top 3 candidate genes, each with 3 hairpins that scored in the validation assay (FIG. 1C).

Lkb1-wt cells = assay: Array-based viral infection and cell proliferation assay (validation), Lkb1-wt; set-up: species or system mouse; conditions: 5 days post infection, alamarBlue
Experimental: as §1, §2, §3

Dtymk = assay: QPCR analysis of Dtymk knockdown in Lkb1-wt 634 cells; conditions: normalized to shGFP
[2] = gene-level KS score over all hairpins of the gene (Table 2, Top 200 genes by KS), only the first hairpin id is printed
[3] = rank of the gene by NES, KS analysis

Row | Substance | mRNA remaining (by qPCR) (Chek1) [%] | Hairpin-rank in pooled shRNA screen [1] | Growth of Lkb1-wt/Lkb1-null in array-based validation (Lkb1-null cells) | Null ave-GR (Lkb1-null cells) | WT ave-GR (Lkb1-wt cells) | NES [1, 2] | NES ([1]; gene-level normalized enrichment score over all hairpins of the gene) | Gene rank ([1]; gene-level rank by NES) | # Hairpins 500 ([1]; number of the gene's hairpins ranked within 500) | # Hairpins 1000 [1] | # Hairpins 5000 [1] | # Hairpins 10000 [1] | # HP 500 ([1]; number of the gene's hairpins ranked within top 500) | # HP 1000 ([1]; number of the gene's hairpins ranked within top 1000) | # HP 5000 ([1]; number of the gene's hairpins ranked within top 5000) | # HP 10000 ([1]; number of the gene's hairpins ranked within top 10000) | Gene rank [1, 3] | mRNA remaining (by qPCR) (Dtymk) [%]
1 | shChek1-5: shRNA hairpin GCAACGGTATTTCGGCATAAT targeting Mouse Chek1 | 40.70 | 23858 | 1.2 | 0.96 | 1.15 | – | – | – | – | – | – | – | – | – | – | – | – | –
2 | shChek1-3: shRNA hairpin CCCATGTAGTAGTATCACTTT targeting Mouse Chek1 | 42.10 | 23815 | 1.64 | 0.27 | 0.45 | 1.57 | 1.520 | 119 | 1 | 1 | 1 | 1 | 1 | 1 | 1 | 1 | 61 | –
3 | shChek1-2: shRNA hairpin GCCACGAGAATGTAGTGAAAT targeting Mouse Chek1 | 43.90 | 14869 | 1.26 | 0.85 | 1.07 | – | – | – | – | – | – | – | – | – | – | – | – | –
4 | shDtymk-4: shRNA hairpin GAAATCGGCAAGCTTCTGAAT targeting Mouse Dtymk (also Human DTYMK) | – | 28546 | 1.67 | 0.51 | 0.85 | – | – | – | – | – | – | – | – | – | – | – | – | 51.10
5 | shDtymk-5: shRNA hairpin CAAGACCACGCAGGCCCTCAA targeting Mouse Dtymk (also Human DTYMK) | – | 5760 | 1.05 | 1.06 | 1.11 | 1.53 | – | – | – | 1 | 1 | 2 | – | – | – | – | 103 | 77.90
6 | shDtymk-2: shRNA hairpin CTTCTCTGCAAACCGCTGGGA targeting Mouse Dtymk | – | 19621 | 1.18 | 1.03 | 1.21 | – | – | – | – | – | – | – | – | – | – | – | – | 66.70
